From patent US20080009025A1, “PROTEIN KINASE REGULATION” (priority 1999, published 2008)
Where a SMILES comes first, the peptide text is derived from it.

Legend:
PDK1 [1] = target: T1, PDK1 (Homo sapiens, UniProt O15530); experiment: PDK1 activity towards synthetic peptide substrates T308tide or PDKtide; assay type: biochemical; conditions: substrate PDKtide
T1 construct: Full length PDK1 (residues 1-556); made in house; host or cells: 293 cells
T1 sequence (O15530 52-556): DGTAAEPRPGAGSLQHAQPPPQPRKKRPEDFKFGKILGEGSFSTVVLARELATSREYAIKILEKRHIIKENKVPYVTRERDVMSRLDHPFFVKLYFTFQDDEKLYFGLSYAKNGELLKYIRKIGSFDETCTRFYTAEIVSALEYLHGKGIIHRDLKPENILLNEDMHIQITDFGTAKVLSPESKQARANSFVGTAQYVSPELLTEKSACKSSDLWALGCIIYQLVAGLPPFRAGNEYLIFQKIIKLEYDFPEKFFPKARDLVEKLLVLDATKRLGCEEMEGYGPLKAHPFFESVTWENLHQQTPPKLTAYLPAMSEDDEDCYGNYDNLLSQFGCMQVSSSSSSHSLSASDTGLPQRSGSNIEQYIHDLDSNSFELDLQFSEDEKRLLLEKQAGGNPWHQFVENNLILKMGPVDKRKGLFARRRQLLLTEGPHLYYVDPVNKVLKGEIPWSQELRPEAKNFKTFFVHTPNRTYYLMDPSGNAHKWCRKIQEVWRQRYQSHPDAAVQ
Experimental: (§1) FIG. 12. PDK1 is activated and stabilised through its interaction with PIFtide. (A) GST-PDK1 activity was measured in the presence of increasing concentrations of wild type (wt) PIFtide (closed circles) or a mutant D978A PIFtide (open circles) using the synthetic peptide substrate termed T308tide, as described in Material and Methods. The data was fitted to a hyperbola using the Kaleidagraph™ software. The connection needed to obtain 50% activation of PDK1 was […] for wt-PIFtide and 1.1 μM for D978A-PIFtide. The assay shown was performed in triplicate and there was less than 5% difference between each assay. Similar results were obtained in 2 further experiments (B)—The wild type GST-PDK1 (circles) or the L155D mutant of GST-PDK1 (squares) was incubated in the presence (closed symbols) or absence (open symbols) of […] PIFtife and then for 2 min at the indicated temperatures, rapidly brought to 0° C. (see Materials and Methods), and 2 min later assayed at 30° C. for 10 min using T308tide as substrate. The activity of PDK1 obtained by incubation at 30° C. was taken as 100%. The assay shown was performed in duplicate with similar results obtained in two separate experiments.
(§2) FIG. 14. […] (A) His-PDK1 was assayed for activity using as substrate the indicated concentration of either PDKtide (open triangles) or T308tide (open circles). (B) HIS-PDK1 was assayed for activity in the presence if PDKtide (25 μM closed triangles) or T308tide (100 μM closed circles) in the presence of the indicated concentrations of PIFtide. The assay was performed in triplicates with less than 5% difference between the triplicate samples. Similar results were obtained in 3 separate experiments.
(§3) PDK1's ability to phosphorylate Thr308 of PKBα was measured using a mutant of GST-PKBα in which Ser473 was mutated to Asp (GST-473D PKBα) in the presence of phospholipid vesicles containing sn-1-stearoyl-2-arachidonoyl-D-PtdIns (3, 4, 5)P3 [13]. The ability of wild type and mutant PDK1 to phosphorylate the synthetic peptides T308tide or PDKtide was carried out in 20 μl assays containing 50 mM Tris/HCl pH 7.5, 0.1% 2-mercaptoethanol 10 mM MgCl2, 100 μM [γ^32P]ATP (˜500 cpm/pmol) 0.5 μM microcystin-LR.PDK1 and the peptide concentrations indicated under Results. After incubation for 10 min at 30° C. the reaction was stopped by addition of 20 μl of 150 mM phosphoric acid. 35 μl of the resultant mixture was spotted into P81 phosphocellulose paper (2×2 cm) and the papers washed and analysed as described previously for assays of MAP kinase. […] Control assays were carried out in parallel in which either PDK1, or peptide substrate were omitted; these values were always less than 5% of the activity measured in the presence of these reagents. […]

PDK1 [2] = experiment: as above; assay type: biochemical, human; conditions: PDK1 L155 mutants
Experimental: as §1, §2, §3

Compound: CC[C@H](C)[C@H](NC(=O)[C@H](Cc1ccc(O)cc1)NC(=O)[C@H](CC(=O)O)NC(=O)[C@H](Cc1ccccc1)NC(=O)[C@H](CC(=O)O)NC(=O)[C@H](CCCNC(=N)N)NC(=O)[C@H](Cc1ccccc1)NC(=O)[C@H](CCSC)NC(=O)[C@H](CCC(=O)O)NC(=O)[C@H](CCC(N)=O)NC(=O)[C@H](CCC(=O)O)NC(=O)[C@H](CCC(=O)O)NC(=O)[C@H](CCC(=O)O)NC(=O)[C@H](CO)NC(=O)[C@H](CC(C)C)NC(=O)[C@@H](NC(=O)[C@H](CCCNC(=N)N)NC(=O)[C@@H]1CCCN1C(=O)[C@H](CCC(=O)O)NC(=O)[C@@H](N)CCCNC(=N)N)[C@@H](C)CC)C(=O)N[C@@H](C)C(=O)N[C@@H](CC(=O)O)C(=O)N[C@@H](Cc1c[nH]c2ccccc12)C(=O)N[C@@H](CS)C(=O)O [PIFtide] (H-REPRILSEEEQEMFRDFDYIADWC-OH; N-terminus and C-terminus assumed)
- effect on the activity of PDK1 towards PDKtide (PDK1 [1]): inhibited
- activation of L155A, L155S, L155D and L155E mutants of PDK1 towards T308tide (PDK1 [2]): did not further activate
